Assay results as given in US8440718B2, “Modulation of inflammation related to columnar epithelia” (The Brigham and Women's Hospital, Inc., priority 1991, dated 2013).
Marks after values point to notes of the source that are not given here. Blank lines part the entries; values can stand above or below the molecule they belong to.

Columns and labels:
[1] = system: human PMN migration across inverted T84 epithelial monolayers; assay: PMN transepithelial migration assay, basolateral-to-apical direction (inverted monolayers), fMLP gradient, myeloperoxidase readout; format: cell-based; settings: for inhibition of PMN migration, basolateral-to-apical (total MPO activity): 10 nM, 15 min pre-incubation 37°C, 1 μM fMLP, 120 min
Protocol: Cell culture Approximately 350 epithelial monolayers were used for these studies. T84 intestinal epithelial cells (passages 70-95) were grown and maintained as confluent monolayers on collagen coated permeable support. Monolayers were grown on 0.33 cm^2 ring-supported polycarbonate filters (Costar Corp., Cambridge, Mass.) and utilized 6-14 days after plating as described in Example 2. Transepithelial resistance to passive ion flow was measured as described in Parkos C. A., et al. (1991). J. Clin. Invest. 88: 1605-1612); and Parkos C. A., et al. (1992). J. Cell. Biol. 117: 757-764). Inverted monolayers used to study migration of PMN in the basolateral-to-apical direction were constructed as described in Parkos C. A., et al. (1991). J. Clin. Invest. 88:1605-1612).
Migration assay: The PMN transepithelial migration assay has been detailed in Nash S., et al. (1987). J. Clin. Invest. 80: 1104-1113; Nash S., et al. (1991). J. Clin. Invest 87: 1474-1477); Parkos C. A., et al. (1991). J. Clin. Invest. 88: 1605-1612); and Parkos C. A., et al. (1992). J. Cell. Biol. 117: 757-764. Briefly, human PMN were isolated from normal human volunteers and suspended in modified HBSS (without Ca^2+ and Mg^2+, with 10 mM Hepes, pH 7.4, Sigma) at a concentration of 5×10^7/ml. Prior to addition of PMN, T84 monolayers were extensively rinsed in HBSS to remove residual serum components. Migration assays were performed by the addition of PMN (40 μl) to HBSS ([…]) in the upper chambers after chemoattractant (1 μM fMLP in HBSS) was added to the opposing (lower) chambers. Unless otherwise indicated, PMN were not washed free of LXA4 prior to addition to monolayers, and therefore, a five-fold dilution of lipoxin was present during the migration assay. For apical-to-basolateral migration experiments, PMN (2×10^6) were added at time 0. Migration in the basolateral-to-apical direction, while qualitatively similar, is substantially more efficient than in the apical-to-basolateral direction. (Parkos C. A., et al. (1991). J. Clin. Invest. 88: 1605-1612). Therefore, 5-fold fewer PMN (4×10^5) were added when migration proceeded in the basolateral-to-apical direction in order that baseline migration signals be approximately equivalent in both directions. (Parkos C. A., et al. (1991). J. Clin. Invest. 88: 1605-1612). Migration was allowed to proceed for 120 minutes, unless otherwise noted. All PMN transepithelial migration experiments were performed in a 37° C. room to ensure that epithelial monolayers, solutions, plasticware, etc., were maintained at uniform 37° C. temperature.
Migration was quantitated by assaying for the PMN azurophilic granule marker myeloperoxidase (MPO) as described previously (Parkos C. A., et al. (1991). J. Clin. Invest 88: 1605-1612). Following each migration assay, non-adherent PMN were extensively washed from the surface of the monolayer and PMN cell equivalents (PMN CE), estimated from a standard curve, were assessed as the number of PMN's associated with the monolayer, the number which had completely traversed the monolayer (ie. across the monolayer into the reservoir bath), as well as the total number of transmigrating PMN (the sum of monolayer and reservoir-associated PMN).
Data Presentation: Individual experiments were performed using large numbers of uniform groups of monolayers and PMN from individual blood donors on individual days. PMN isolation was restricted to five different blood donors (repetitive donations) over the course of these studies. Myeloperoxidase assay data were compared by two-factor analysis of variance (ANOVA) or by comparison of means using Student's t-Test PMN migration results are represented as PMN CE derived from a daily standard PMN dilution curve. Monolayer-associated PMN are represented as the number of PMN CE per monolayer and reservoir-associated PMN (ie. PMN which had completely traversed the monolayer into the lower chamber) are represented as the number of PMN CE/ml (total volume of 1 ml). […]

[2] = system: human PMN migration across T84 epithelial monolayers; assay: Effect of inhibitors on baseline and LXA4-elicited PMN transepithelial migration, apical-to-basolateral; format: cell-based
[3] = system: neutrophil transmigration across T84 monolayers; assay: Neutrophil transmigration across T84 monolayers by resistance or myeloperoxidase assay, Example 2; format: cell-based, human; settings: fMLP 10^−6 and 10^−7 M
Excerpt: (§1) Preparation of monolayers: Normal or inverted monolayers can be constructed for a physiological microassay using the commercially available insert system (Costar inserts, 0.33 cm^2, 5 μm polycarbonate filters). The larger pore size is crucial for allowing neutrophils to penetrate the filter. Collagen 1 must coat the filters to allow attachment of T84 cells. Original descriptions of the collagen coat involved procedures in which the collagen was chemically crosslinked Dharmsathaphorn, K. et al; Meth. Enzymol. 192:354-389; 1990. Dharmsathaphom, K. et al; Am. J. Physiol. 246 (Gastrointest. Liver Physiol. 9):G204-G208; 1984.
(§2) Isolation of neutrophils: Neutrophils are isolated from whole blood using a gelatin-sedimentation technique. Briefly, whole blood, anticoagulated with citrate/dextrose, is centrifuged at 300×g for 20 minutes (20° C.). The plasma and buffy coat are carefully removed using a curved, siliconized glass pipette which is attached to a vacuum trap. Care must be taken not to aspirate the interface between the buffy coat and RBC since this is where PMN reside. […]
For measurements, bridges are positioned as described, and the spontaneous transepithelial electrical potential and the instantaneous potential generated by passing 25 μA of current are measured. […] Using these values and Ohm's Law, tissue resistance and transepithelial current are then calculated. […]

[4] = system: neutrophil transmigration across T84 monolayers; assay: Neutrophil migration across inverted T84 monolayers (basolateral to apical), myeloperoxidase assay, Example 2; format: cell-based, human; settings: FMLP 10^−6 M, PMN 6 × 10^6/cm^2
Excerpt: as §1
Inverted monolayers can also be grown using this technique. For this 0.8 mm thick lexan rings having the same dimension of the base of Costar inserts are machined, deburred, cleaned by boiling with a trace of detergent and subsequently exhaustively washed, and attached to the underside of the insert using General Electric RTV Silicone glue (this underside ring is necessary for a peripheral electrical seal). After drying overnight, the inserts are sterilized by submersion in 70% ethanol (4-hr overnight), inverted onto a sterile petri dish in a hood, and allowed to dry. Collagen and cells are added to the filter (underside now facing up) exactly as with unmodified inserts and cells are allowed to attach for 4 hours before righting the inserts into the 24 well holding plates. Subsequent treatment of the monolayers is identical to that described above.
as §2, with “trap.” for “trap. Care must be taken not to aspirate the interface between the buffy coat and RBC since this is where PMN reside.”
Myeloperoxidase assay of neutrophil transepithelial migration: PMN contents of monolayers and lower chambers can be quantitated by assaying the PMN-specific azurophil granule marker, myeloperoxidase (MPO). […]

effect on PMN migration in basolateral-to-apical direction [1]: no effect | inhibition of PMN migration, basolateral-to-apical (total MPO activity) [1]: 7±4%
Molecule: CCCCC[C@H](O)[C@H](O)/C=C/C=C/C=C\C=C\[C@@H](O)CCCC(=O)O (relative stereo) [LXB4, (5S, 14R, 15S)-trihydroxy-6,10,12-trans-8-cis-eicosatetraenoic acid]

inhibition of PMN migration, basolateral-to-apical (total MPO activity) [1]: 16±6%
Molecule: CCCCCC(O)C=CC=CC=CC=CC(O)C(O)CCCC(=O)O (stereo not drawn) [11-trans-LXA4]

Molecule: CC1CNCCN1S(=O)(=O)c1cccc2cnccc12 (stereo not shown) [Compound H7]
inhibition of PMN transepithelial migration compared to vehicle control ([2]; H7 100 μM final concentration): 91±4%

Molecule: CC(C)c1ccc2c(c1)c(SC(C)(C)C)c(CC(C)(C)C(=O)O)n2Cc1ccc(Cl)cc1 [MK886]
effect on LXA4-elicited increase in PMN transepithelial migration ([2]; MK886 10 ng/ml): did not effect | effect on baseline fMLP driven PMN migration ([2]; MK886 10 ng/ml): did not alter

Molecule: COc1ccc2c(c1)c(CC(=O)O)c(C)n2C(=O)c1ccc(Cl)cc1 [indomethacin]
baseline PMN migration, % vehicle control ([2]; indomethacin 50 μM, 15 min, 37°C, fMLP gradient): 109±13 % vehicle control

Molecule: N-formyl-Met-Leu-Phe [fMLP]
stimulation of neutrophil transmigration [3]: effective in stimulating transmigration | Neutrophil Cell Equivalents In Monolayers [4]: 5.47 × 10^4 | Neutrophil Cell Equivalents In Opposite Reservoir [4]: 85.30^# × 10^4 | Neutrophil Cell Equivalents Total [4]: 90.77^# × 10^4

Molecule: pertussis toxin
inhibition of control, LXA4-elicited migration ([2]; PMN pre-exposed to pertussis toxin 2 μg/ml, then LXA4): 87±4% | inhibition of baseline fMLP driven migration compared to vehicle control ([2]; pertussis toxin 2 μg/ml): 91±8%
